Laboratory results: patent publication US9248119B2, “Modified release dosage forms of xanthine oxidoreductase inhibitor or xanthine oxidase inhibitors” (Takeda Pharmaceuticals U.S.A., Inc., priority 2010, dated 2016)
Read-outs that look alike come from different tables or passages of the source.

How the values were obtained:
clinical [1] = conditions: human, in vivo; for Vd/F: Vss/F
Description: The development of the previously described embodiments resulted from a long drug development process. […] The study was also designed to assess the pharmacokinetic and pharmacodynamic profiles of multiple daily oral doses over a range of doses and ranges, including both once-daily and twice-daily administration.
(§1) Samples were analyzed by high performance liquid chromatography.

[2] = Phase 1 single-dose 5-way crossover study of four extended release and one immediate release febuxostat formulation; format: in vivo, human; conditions: all subjects, all formulations
Description: This examples describes the results of a phase 1, single-center, open-label, randomized, 5-way crossover study. Thirty-five adult male and female subjects aged 18 to 55 years, inclusive, in good health, were selected to participate in this study.

uric acid = assay: Pharmacodynamics in Phase 1 dose escalation study: uric acid levels; format: in vivo, human
Description: as §1

xanthine oxidase [3] = target: T1, xanthine oxidase (Homo sapiens, UniProt P47989)
xanthine oxidase [4] = target: T1, xanthine oxidase; remark: listed apart in the source
[5] = cited from earlier work; for fu (free fraction in plasma): in %
clinical [6] = conditions: human, plasma, po
[7] = normal patients, 14C, nominal 1 μg/mL
[8] = patients with severe renal impairment

T1 sequence (P47989 whole entry): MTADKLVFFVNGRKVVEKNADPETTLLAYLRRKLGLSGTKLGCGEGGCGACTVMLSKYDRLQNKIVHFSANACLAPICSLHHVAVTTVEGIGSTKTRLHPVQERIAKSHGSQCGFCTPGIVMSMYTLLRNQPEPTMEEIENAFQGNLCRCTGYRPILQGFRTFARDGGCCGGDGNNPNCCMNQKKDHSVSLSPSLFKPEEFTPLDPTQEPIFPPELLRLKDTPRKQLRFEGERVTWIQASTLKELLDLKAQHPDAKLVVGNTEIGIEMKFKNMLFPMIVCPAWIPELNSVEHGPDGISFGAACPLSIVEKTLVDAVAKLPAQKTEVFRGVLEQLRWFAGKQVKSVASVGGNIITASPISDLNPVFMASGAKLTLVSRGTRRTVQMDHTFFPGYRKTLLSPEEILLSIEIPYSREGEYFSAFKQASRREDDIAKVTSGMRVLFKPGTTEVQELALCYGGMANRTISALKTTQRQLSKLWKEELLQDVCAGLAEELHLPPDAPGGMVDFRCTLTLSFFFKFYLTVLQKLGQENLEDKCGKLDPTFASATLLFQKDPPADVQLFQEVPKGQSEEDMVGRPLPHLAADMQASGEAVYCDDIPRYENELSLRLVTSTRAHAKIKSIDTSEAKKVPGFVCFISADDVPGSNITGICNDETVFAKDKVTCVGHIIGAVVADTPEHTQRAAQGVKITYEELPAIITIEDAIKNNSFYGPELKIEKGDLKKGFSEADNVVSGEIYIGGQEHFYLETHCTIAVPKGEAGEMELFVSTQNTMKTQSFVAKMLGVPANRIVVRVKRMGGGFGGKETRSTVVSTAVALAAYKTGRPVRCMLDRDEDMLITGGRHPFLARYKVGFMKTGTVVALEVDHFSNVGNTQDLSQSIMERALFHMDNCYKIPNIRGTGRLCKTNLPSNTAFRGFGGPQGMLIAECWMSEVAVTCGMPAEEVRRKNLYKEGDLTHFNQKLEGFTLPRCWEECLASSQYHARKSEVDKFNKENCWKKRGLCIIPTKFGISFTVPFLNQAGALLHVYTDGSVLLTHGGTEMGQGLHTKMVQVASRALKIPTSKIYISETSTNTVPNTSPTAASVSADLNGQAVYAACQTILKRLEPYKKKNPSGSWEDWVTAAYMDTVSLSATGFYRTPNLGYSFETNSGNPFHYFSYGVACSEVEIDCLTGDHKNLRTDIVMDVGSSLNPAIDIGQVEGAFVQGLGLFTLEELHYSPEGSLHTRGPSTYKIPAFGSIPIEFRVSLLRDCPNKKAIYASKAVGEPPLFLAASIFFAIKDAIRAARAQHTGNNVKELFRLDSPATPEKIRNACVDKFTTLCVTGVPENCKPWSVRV

## Cc1nc(-c2ccc(OCC(C)C)c(C#N)c2)sc1C(=O)O [Febuxostat, 2-[3-cyano-4-(2-methylpropoxy)phenyl]-4-methylthiazole-5-carboxylic acid]
Clinical [1]
  Vd: ~0.7 L/kg
  half-life: ~6 h
Clinical [1]; 10 mg
  Cmax: 399.5 ng/mL
  Tmax: 0.70 h
  Vss/F: 42.7 L
  AUC(0-inf): 727 ng·h/mL
  Vd/F: 38.2 L
Clinical [1]; 10 mg, AUC (AUC24)
  AUC: 950 ng·h/mL
Clinical [1]; 10 mg, Cmax
  Cmax: 336 ng/mL
Clinical [1]; 10 mg, tmax
  Tmax: 0.99 h
Clinical [1]; 20 mg
  Cmax: 934.2 ng/mL
  Vss/F: 33.3 L
  AUC(0-inf): 2180 ng·h/mL
  Vd/F: 29.2 L
Clinical [1]; 20 mg, AUC (AUC24)
  AUC: 2110 ng·h/mL
Clinical [1]; 20 mg, Cmax
  Cmax: 1110 ng/mL
Clinical [1]; 20 mg, tmax
  Tmax: 1.06 h
Clinical [1]; 30 mg
  AUC (AUC12): 3308.3 ng·h/mL
  AUC (AUC∞): 2816.9 ng·h/mL
  AUC(0-inf): 2550 ng·h/mL
Clinical [1]; 30 mg, AUC (AUC12)
  AUC: 2910 ng·h/mL
Clinical [1]; 30 mg, AUC (AUC24)
  AUC: 2570 ng·h/mL
Clinical [1]; 30 mg, Cmax
  Cmax: 1120 ng/mL
Clinical [1]; 40 mg
  Cmax: 1822.1 ng/mL
  Vss/F: 49.5 L
  AUC(0-inf): 3980 ng·h/mL
  Vd/F: 48.7 L
Clinical [1]; 40 mg, AUC (AUC24)
  AUC: 4300 ng·h/mL
Clinical [1]; 40 mg, Cmax
  Cmax: 1530 ng/mL
Clinical [1]; 40 mg, tmax
  Tmax: 1.44 h
Clinical [1]; 50 mg
  Cmax: 1791.7 ng/mL
  Vss/F: 59.1 L
  AUC(0-inf): 4410 ng·h/mL
  Vd/F: 43.2 L
Clinical [1]; 50 mg, AUC (AUC24)
  AUC: 4380 ng·h/mL
Clinical [1]; 50 mg, Cmax
  Cmax: 1970 ng/mL
Clinical [1]; 50 mg, tmax
  Tmax: 0.78 h
Clinical [1]; 70 mg
  Cmax: 2689.9 ng/mL
  Vss/F: 54.1 L
  AUC(0-inf): 6930 ng·h/mL
  Vd/F: 41.6 L
Clinical [1]; 70 mg, AUC (AUC24)
  AUC: 6950 ng·h/mL
Clinical [1]; 70 mg, Cmax
  Cmax: 3080 ng/mL
Clinical [1]; 70 mg, tmax
  Tmax: 1 h
Clinical [1]; 90 mg
  Cmax: 4058.9 ng/mL
  Vss/F: 63.7 L
  AUC(0-inf): 9090 ng·h/mL
  Vd/F: 56.7 L
Clinical [1]; 90 mg, AUC (AUC24)
  AUC: 9650 ng·h/mL
Clinical [1]; 90 mg, Cmax
  Cmax: 3480 ng/mL
Clinical [1]; 90 mg, tmax
  Tmax: 0.95 h
Clinical [1]; 120 mg
  Cmax: 5307.6 ng/mL
  Vss/F: 55.1 L
  AUC(0-inf): 11300 ng·h/mL
  Vd/F: 57.8 L
Clinical [1]; 120 mg, AUC (AUC24)
  AUC: 12000 ng·h/mL
Clinical [1]; 120 mg, Cmax
  Cmax: 4470 ng/mL
Clinical [1]; 120 mg, tmax
  Tmax: 1 h
Clinical [1]; 160 mg
  Cmax: 8771.1 ng/mL
  Vss/F: 36.1 L
  AUC(0-inf): 20700 ng·h/mL
  Vd/F: 40.7 L
Clinical [1]; 160 mg, AUC (AUC24)
  AUC: 22300 ng·h/mL
Clinical [1]; 160 mg, Cmax
  Cmax: 7300 ng/mL
Clinical [1]; 160 mg, tmax
  Tmax: 0.75 h
Clinical [1]; 180 mg
  Cmax: 8048.8 ng/mL
  Tmax: 1.00 h
  Vss/F: 45.6 L
  AUC(0-inf): 25600 ng·h/mL
  Vd/F: 54.6 L
Clinical [1]; 180 mg, AUC (AUC24)
  AUC: 24000 ng·h/mL
Clinical [1]; 180 mg, Cmax
  Cmax: 8400 ng/mL
Clinical [1]; 180 mg, tmax
  Tmax: 1.07 h
Clinical [1]; 240 mg
  Cmax: 11263 ng/mL
  Vss/F: 31.3 L
  AUC(0-inf): 28300 ng·h/mL
  Vd/F: 54.6 L
Clinical [1]; 240 mg, AUC (AUC24)
  AUC: 35000 ng·h/mL
Clinical [1]; 240 mg, Cmax
  Cmax: 8390 ng/mL
Clinical [1]; 240 mg, tmax
  Tmax: 1.06 h
Clinical [1]; po
  oral clearance from the plasma: 7.3 to 15.1 L/h
Clinical [1]; po, tmax
  Tmax: ~1 h
[2]
  absorption lag-time after oral dosing: no absorption lag-time
Uric acid; 30 mg twice daily compared with once daily 120 mg
  lowering uric acid levels: as effective
Uric acid; IR, once a day, as little as 10 mg, healthy subjects
  serum uric acid concentrations: lowers concentrations of uric acid
Uric acid; in vivo febuxostat concentrations at or above 100 ng/mL (0.1 μg/mL)
  inhibition of uric acid levels: ≥ 80%
Xanthine oxidase [3]; IR 10 mg QD, 8 hours post dose
  Percentage Inhibition of xanthine oxidase: 43.6%
Xanthine oxidase [3]; IR 10 mg QD, 12 hours post dose
  Percentage Inhibition of xanthine oxidase: 27.3%
Xanthine oxidase [3]; IR 10 mg QD, 16 hours post dose
  Percentage Inhibition of xanthine oxidase: 0%
Xanthine oxidase [3]; IR 10 mg QD, 24 hours post dose
  Percentage Inhibition of xanthine oxidase: 0%
Xanthine oxidase [3]; IR 20 mg QD, 8 hours post dose
  Percentage Inhibition of xanthine oxidase: 55.9%
Xanthine oxidase [3]; IR 20 mg QD, 12 hours post dose
  Percentage Inhibition of xanthine oxidase: 54.0%
Xanthine oxidase [3]; IR 20 mg QD, 16 hours post dose
  Percentage Inhibition of xanthine oxidase: 42.8%
Xanthine oxidase [3]; IR 20 mg QD, 24 hours post dose
  Percentage Inhibition of xanthine oxidase: 0%
Xanthine oxidase [3]; IR 30 mg QD, 8 hours post dose
  Percentage Inhibition of xanthine oxidase: 62.3%
Xanthine oxidase [3]; IR 30 mg QD, 12 hours post dose
  Percentage Inhibition of xanthine oxidase: 52.5%
Xanthine oxidase [3]; IR 30 mg QD, 16 hours post dose
  Percentage Inhibition of xanthine oxidase: 37.1%
Xanthine oxidase [3]; IR 30 mg QD, 24 hours post dose
  Percentage Inhibition of xanthine oxidase: 35.9%
Xanthine oxidase [3]; IR 40 mg QD, 8 hours post dose
  Percentage Inhibition of xanthine oxidase: 69.8%
Xanthine oxidase [3]; IR 40 mg QD, 12 hours post dose
  Percentage Inhibition of xanthine oxidase: 55.9%
Xanthine oxidase [3]; IR 40 mg QD, 16 hours post dose
  Percentage Inhibition of xanthine oxidase: 43.3%
Xanthine oxidase [3]; IR 40 mg QD, 24 hours post dose
  Percentage Inhibition of xanthine oxidase: 36.2%
Xanthine oxidase [3]; IR 50 mg QD, 8 hours post dose
  Percentage Inhibition of xanthine oxidase: 77.9%
Xanthine oxidase [3]; IR 50 mg QD, 12 hours post dose
  Percentage Inhibition of xanthine oxidase: 64.9%
Xanthine oxidase [3]; IR 50 mg QD, 16 hours post dose
  Percentage Inhibition of xanthine oxidase: 49.1%
Xanthine oxidase [3]; IR 50 mg QD, 24 hours post dose
  Percentage Inhibition of xanthine oxidase: 38.5%
Xanthine oxidase [3]; IR 70 mg QD, 8 hours post dose
  Percentage Inhibition of xanthine oxidase: 81.2%
Xanthine oxidase [3]; IR 70 mg QD, 12 hours post dose
  Percentage Inhibition of xanthine oxidase: 66.3%
Xanthine oxidase [3]; IR 70 mg QD, 16 hours post dose
  Percentage Inhibition of xanthine oxidase: 56.0%
Xanthine oxidase [3]; IR 70 mg QD, 24 hours post dose
  Percentage Inhibition of xanthine oxidase: 35.3%
Xanthine oxidase [3]; IR 90 mg QD, 8 hours post dose
  Percentage Inhibition of xanthine oxidase: 85.6%
Xanthine oxidase [3]; IR 90 mg QD, 12 hours post dose
  Percentage Inhibition of xanthine oxidase: 77.7%
Xanthine oxidase [3]; IR 90 mg QD, 16 hours post dose
  Percentage Inhibition of xanthine oxidase: 68.1%
Xanthine oxidase [3]; IR 90 mg QD, 24 hours post dose
  Percentage Inhibition of xanthine oxidase: 50.3%
Xanthine oxidase [3]; IR 120 mg QD, 8 hours post dose
  Percentage Inhibition of xanthine oxidase: 89.0%
Xanthine oxidase [3]; IR 120 mg QD, 12 hours post dose
  Percentage Inhibition of xanthine oxidase: 82.6%
Xanthine oxidase [3]; IR 120 mg QD, 16 hours post dose
  Percentage Inhibition of xanthine oxidase: 75.8%
Xanthine oxidase [3]; IR 120 mg QD, 24 hours post dose
  Percentage Inhibition of xanthine oxidase: 60.5%
Xanthine oxidase [3]; IR 120 mg, Table 2
  time for which at least 80% inhibition of xanthine oxidase is provided: ≤ 16 h
Xanthine oxidase [3]; IR 160 mg QD, 8 hours post dose
  Percentage Inhibition of xanthine oxidase: 93.9%
Xanthine oxidase [3]; IR 160 mg QD, 12 hours post dose
  Percentage Inhibition of xanthine oxidase: 90.9%
Xanthine oxidase [3]; IR 160 mg QD, 16 hours post dose
  Percentage Inhibition of xanthine oxidase: 81.4%
Xanthine oxidase [3]; IR 160 mg QD, 24 hours post dose
  Percentage Inhibition of xanthine oxidase: 67.6%
Xanthine oxidase [3]; IR 180 mg QD, 8 hours post dose
  Percentage Inhibition of xanthine oxidase: 94.7%
Xanthine oxidase [3]; IR 180 mg QD, 12 hours post dose
  Percentage Inhibition of xanthine oxidase: 91.7%
Xanthine oxidase [3]; IR 180 mg QD, 16 hours post dose
  Percentage Inhibition of xanthine oxidase: 81.5%
Xanthine oxidase [3]; IR 180 mg QD, 24 hours post dose
  Percentage Inhibition of xanthine oxidase: 68.4%
Xanthine oxidase [3]; IR 240 mg QD, 8 hours post dose
  Percentage Inhibition of xanthine oxidase: 95.7%
Xanthine oxidase [3]; IR 240 mg QD, 12 hours post dose
  Percentage Inhibition of xanthine oxidase: 91.4%
Xanthine oxidase [3]; IR 240 mg QD, 16 hours post dose
  Percentage Inhibition of xanthine oxidase: 86.5%
Xanthine oxidase [3]; IR 240 mg QD, 24 hours post dose
  Percentage Inhibition of xanthine oxidase: 72.4%
Xanthine oxidase [4]; 120 mg immediate release dosage forms, other studies
  time with at least 80% inhibition of xanthine oxidase: ~14 h
Xanthine oxidase [4]; 240 mg immediate release dosage forms, further studies
  time with at least 80% inhibition of xanthine oxidase: about 22 hours
[5]; male, female, younger and elderly group of subjects
  percent free fraction of febuxostat in plasma: 0.7±0.1%
[5]; [7]
  percent fu: 0.9±0.2%
  fu (free fraction in plasma): 0.9±0.2
[5]; [8]
  percent fu: 1.2±0.2%
  fu (free fraction in plasma): 1.2±0.2
Clinical [6]; 120 mg
  Cmax: ~3900 ng/mL
Clinical [6]; 240 mg
  Cmax: 10200 ng/mL
